In patent publication US20240287138A1, “CYCLIC PEPTIDES FOR INHIBITING TNF RECEPTOR 1 ACTIVITY” (Merck Sharp & Dohme LLC, priority 2023, published 2024):
Like-named read-outs stand apart in the source and are kept apart here. Numbered stars: 1 amine (or outer) side, 2 acyl side, 3 side chain; on linkers, the order of the positions; unused ones are H or OH. Bridge positions count the residues as written; N and C are the ends. Square brackets hold non-standard residues; d marks the D form. Peptide text beside a SMILES is read from it. Trp(βS-Me,7-OMe) = COc1cccc2c([C@H](C)[C@H](N)C(=O)O)c[nH]c12; X12 = C[C@@H](c1ccc(O)cc1)[C@H](N[*:1])C(=O)[*:2]; Trp(7-Cl) = N[C@@H](Cc1c[nH]c2c(Cl)cccc12)C(=O)O; Phe(4-CONH2) = NC(=O)c1ccc(C[C@H](N)C(=O)O)cc1; Phe(4-COOH) = N[C@@H](Cc1ccc(C(=O)O)cc1)C(=O)O; X25 = O=C(O)c1ccc(C[C@H](N[*:1])C(=O)[*:2])cn1; Trp(7-aza) = N[C@@H](Cc1c[nH]c2ncccc12)C(=O)O; X18 = O=C([C@@H]1C=C[C@H](N[*:1])C1)[*:2]; Pip(5R-OH) = O=C(O)[C@@H]1CC[C@@H](O)CN1; X1 = O=C([C@@H]1CC[C@H](N[*:1])C1)[*:2]; Pip(4-aza) = O=C(O)[C@@H]1CNCCN1; hPhe = N[C@@H](CCc1ccccc1)C(=O)O; 4Pal = N[C@@H](Cc1ccncc1)C(=O)O; NMeE = CN[C@@H](CCC(=O)O)C(=O)O; dHyp = O=C(O)[C@H]1C[C@H](O)CN1; αMeS = C[C@](N)(CO)C(=O)O; NMeA = CN[C@@H](C)C(=O)O; Nle = CCCC[C@H](N)C(=O)O; Sar = CNCC(=O)O

Columns and labels:
human TNFR2 ECD protein = target: T1, human TNFR2 ECD protein (Homo sapiens, UniProt P20333); assay: SPR off-target binding (selectivity) to human TNFR2 ECD
T1 construct: HRV 3C protease cleavage site (C); 6His (C, cleaved yes); made in house; host or cells: Sf21 insect cells (baculovirus), secreted
T1 sequence (P20333 23-257): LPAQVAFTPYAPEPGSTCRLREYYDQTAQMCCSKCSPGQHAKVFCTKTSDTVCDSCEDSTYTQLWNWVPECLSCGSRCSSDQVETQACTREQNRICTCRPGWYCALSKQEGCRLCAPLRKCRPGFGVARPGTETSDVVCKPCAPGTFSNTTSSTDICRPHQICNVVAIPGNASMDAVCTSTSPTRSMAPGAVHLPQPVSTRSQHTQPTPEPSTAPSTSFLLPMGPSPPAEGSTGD
Description: (§1) B. Procedure for Binding Affinity and Selectivity measured by SPR
(§2) Affinity and selectivity for hTNFR1 and TNFR2 was determined using SPR. Human TNFR1 or TNFR2 genes (extracellular domain only) were synthesized with a C-terminal Avi-tag, HRV 3C protease cleavage site followed by a 6His-tag for affinity purification. The final gene product was cloned into pBAC™-1 vector (Millipore Sigma) for expression testing in insect cells. Constructs were transfected into Sf21 cells for baculovirus generation followed by protein expression analysis in Sf21 and Tni cell lines. Large scale expression in Sf21 cells was performed using baculovirus infected insect cells (BIICs) infected at a MOI=2.0 grown for 72 h. Target proteins secreted into the media were harvested via centrifugation and concentrated using diafiltration. TNFR was purified by immobilized metal ion affinity chromatography (IMAC) using a Ni-Sepharose HisTrap™ column (Cytiva™). Isolated TNFR had His tag removed using HRV 3C protease followed by additional purification using Ni-NTA chromatography. Biotinylation was performed on Ni-NTA flow-through fractions concentrated to 45 μM and treated with BirA ligase (1:100, μg/μg ratio) in 50 mM Tris pH 7.5, 150 mM NaCl, 50 μM biotin, 10 mM magnesium acetate, 10 mM ATP at 4° C. for 20 h. Final purification of biotin-TNFR and buffer exchange into 20 mM HEPES pH 7.5, 150 mM NaCl was performed using a HiLoad® Superdex® 200 26/60 column (Cytiva™). Highly purified protein was aliquoted and stored at −80° C.
(§3) The SPR assay uses a Cytiva™ 8K or 8K+ biosensor instrument to measure the kinetics of peptide analytes binding to captured human TNFR1 extracellular domain (ECD) protein; peptide analytes are also evaluated for any off-target binding to human TNFR2 ECD protein in parallel. Recombinant human TNFR1 ECD and human TNFR2 ECD proteins, biotinylated via engineered C-terminal avi-tags, are immobilized to a regenerable streptavidin biosensor chip surface (Cytiva™ Biotin CAPture kit, Series S; cat. #28920234). Peptide analytes binding to immobilized human TNFR1 ECD protein and their subsequent dissociation are conducted in a buffer of 10 mM HEPES pH 7.4, 150 mM NaCl, 3 mM EDTA, 0.05% P20,2% DMSO under laminar flow conditions and measured in response units (RU), which are directly proportional to the accumulated mass on the surface of the biosensor chip; the biosensor chip surface is regenerated via Cytiva™ proprietary methods between the evaluation of each peptide analyte. […] The SPR assay determines the association and dissociation rate constants, kon and koff, for each peptide analyte and, from these values, calculates the binding affinity, […] reported in Table 2.

[1] = target: T2, TNFα-induced NF-κB signal transduction pathway (TNFR1 signaling) in THP-1 cells (Homo sapiens, UniProt P19438); assay: THP-1 Lucia NF-κB reporter cell assay, inhibition of TNFα-induced NF-κB signaling; assay type: cell-based; conditions: THP-1 NF-κB Lucia reporter cells, 10 ng/mL TNFα, 16-18 h, secreted luciferase; read-out: THP-1 IC50
T2 sequence (P19438 30-455): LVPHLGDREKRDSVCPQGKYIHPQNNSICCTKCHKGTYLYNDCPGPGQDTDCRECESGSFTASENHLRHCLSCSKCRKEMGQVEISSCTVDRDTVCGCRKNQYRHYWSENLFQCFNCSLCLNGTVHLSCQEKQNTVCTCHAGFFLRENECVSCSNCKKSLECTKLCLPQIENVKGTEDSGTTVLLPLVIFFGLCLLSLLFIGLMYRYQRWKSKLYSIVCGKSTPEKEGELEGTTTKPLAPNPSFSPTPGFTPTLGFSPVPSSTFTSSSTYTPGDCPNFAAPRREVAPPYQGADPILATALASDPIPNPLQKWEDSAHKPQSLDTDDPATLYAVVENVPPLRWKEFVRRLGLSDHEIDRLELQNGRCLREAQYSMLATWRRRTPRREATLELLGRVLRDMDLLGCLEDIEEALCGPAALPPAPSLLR
Outline: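 IC50 from a 4-parameter logistic fit of secreted luciferase luminescence (QUANTI-Luc), normalised to min/max controls. Reporter THP-1 cells were exposed to peptides for 1 h at 37 °C before 10 ng/mL TNFα (final) was added overnight (16–18 h).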

[2] = target: T3, human TNFR1 extracellular domain (ECD) protein (Homo sapiens, UniProt P19438); assay: SPR binding affinity to captured human TNFR1 ECD
T3 construct: HRV 3C protease cleavage site (C); 6His (C, cleaved yes); made in house; host or cells: Sf21 insect cells (baculovirus), secreted
T3 sequence (P19438 30-211): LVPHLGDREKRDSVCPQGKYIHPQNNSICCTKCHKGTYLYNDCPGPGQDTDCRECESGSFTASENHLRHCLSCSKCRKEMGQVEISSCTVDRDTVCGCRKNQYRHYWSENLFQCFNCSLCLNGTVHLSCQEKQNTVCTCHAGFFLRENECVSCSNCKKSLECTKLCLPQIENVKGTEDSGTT
Description: as §1, §2, §3

CCCC[C@@H]1NC(=O)CSC[C@@H](C(N)=O)NC(=O)[C@H]([C@@H](C)c2c[nH]c3c(OC)cccc23)NC(=O)CN(C)C(=O)[C@H](Cc2ccc(O)cc2)NC(=O)[C@H](Cc2ccc(C(=O)O)cc2)NC(=O)[C@](C)(CO)NC(=O)[C@H](Cc2c[nH]c3c(Cl)cccc23)NC(=O)[C@H](Cc2ccncc2)NC(=O)[C@H](CC(N)=O)NC(=O)[C@H](CCC(=O)O)N(C)C(=O)[C@H](Cc2c[nH]c3ncccc23)NC(=O)[C@H](CO)NC(=O)[C@H]([C@@H](C)c2ccc(O)cc2)NC1=O [SEQ ID NO. 46] ({CH2CO}-[Nle][X12]S[Trp(7-aza)][NMeE]N[4Pal][Trp(7-Cl)][αMeS][Phe(4-COOH)]Y[Sar][Trp(βS-Me,7-OMe)]C-NH2; thioether N-14)
Kd (human TNFR2 ECD protein): > 1000 nM
IC50 [1]: 3 nM
Kd [2]: 0.07 nM

CCCC[C@@H]1NC(=O)[C@@H]2CC[C@@H](C2)NC(=O)[C@H]([C@@H](C)c2c[nH]c3c(OC)cccc23)NC(=O)CN(C)C(=O)[C@H](Cc2ccc(C(=O)O)cc2)NC(=O)[C@H](Cc2ccc(C(N)=O)cc2)NC(=O)[C@](C)(CO)NC(=O)[C@H](Cc2c[nH]c3c(Cl)cccc23)NC(=O)[C@H](Cc2ccc(C(=O)O)nc2)NC(=O)[C@H](CC(N)=O)NC(=O)[C@H]2C[C@H](O)CN2C(=O)[C@H](Cc2c[nH]c3ncccc23)NC(=O)[C@@H]2CC[C@@H](O)CN2C(=O)[C@H](Cc2ccncc2)NC1=O [SEQ ID NO. 57] (cyclo([4Pal][Pip(5R-OH)][Trp(7-aza)][dHyp]N[X25][Trp(7-Cl)][αMeS][Phe(4-CONH2)][Phe(4-COOH)][Sar][Trp(βS-Me,7-OMe)][X1][Nle]))
Kd (human TNFR2 ECD protein): > 1000 nM
IC50 [1]: 0.8 nM
Kd [2]: 0.09 nM

CCCC[C@@H]1NC(=O)CSC[C@@H](C(N)=O)NC(=O)[C@H]([C@@H](C)c2c[nH]c3c(OC)cccc23)NC(=O)CN(C)C(=O)[C@H](Cc2ccc(O)cc2)NC(=O)[C@H](Cc2ccc(C(=O)O)cc2)NC(=O)[C@](C)(CO)NC(=O)[C@H](Cc2c[nH]c3c(Cl)cccc23)NC(=O)[C@H](Cc2ccncc2)NC(=O)[C@H](CC(N)=O)NC(=O)[C@H](CCC(=O)O)N(C)C(=O)[C@H](Cc2c[nH]c3ncccc23)NC(=O)[C@@H]2CNCCN2C(=O)[C@H](Cc2ccncc2)NC1=O [SEQ ID NO. 68] ({CH2CO}-[Nle][4Pal][Pip(4-aza)][Trp(7-aza)][NMeE]N[4Pal][Trp(7-Cl)][αMeS][Phe(4-COOH)]Y[Sar][Trp(βS-Me,7-OMe)]C-NH2; thioether N-14)
Kd (human TNFR2 ECD protein; biotinylated human TNFR2 ECD on streptavidin chip, read-out: SPR hTNFR2 KD): > 1000 nM
IC50 [1]: 3 nM
Kd ([2]; biotinylated human TNFR1 ECD on streptavidin chip, from kon and koff, read-out: SPR hTNFR1 KD): 0.55 nM

C[C@H]1C(=O)N[C@@H](CC(N)=O)C(=O)N[C@@H](Cc2ccncc2)C(=O)N[C@@H](Cc2c[nH]c3ccccc23)C(=O)N[C@@](C)(CO)C(=O)N[C@@H](Cc2ccc(C(=O)O)cc2)C(=O)N[C@@H](Cc2ccc(O)cc2)C(=O)N(C)CC(=O)N[C@@H](Cc2c[nH]c3ccccc23)C(=O)N[C@H]2C=C[C@H](C2)C(=O)N[C@@H](CCc2ccccc2)C(=O)N[C@@H](Cc2ccncc2)C(=O)N[C@@H](CO)C(=O)N[C@@H](Cc2c[nH]c3ccccc23)C(=O)N1C [SEQ ID NO. 73] (cyclo([4Pal]SW[NMeA]N[4Pal]W[αMeS][Phe(4-COOH)]Y[Sar]W[X18][hPhe]))
Kd (human TNFR2 ECD protein): > 1000 nM
IC50 [1]: 5.8 nM
Kd [2]: 0.9 nM
